{
  "source": "ChEMBL document CHEMBL4433252",
  "about": "“Bypassing lantibiotic resistance by an effective nisin derivative” (Bioorg Med Chem, 2019)",
  "key": {"[1]": {"test_system": "Lactococcus lactis", "assay": "Growth inhibition of Lactococcus lactis NZ9000 transfected with Streptococcus agalactiae COH1 NSR incubated for 5 hrs by spectrophotometry", "assay_type": "functional, organism-based", "details": "NZ9000, 5 h"}, "[2]": {"test_system": "Lactococcus lactis", "assay": "(§1) Resistance index, ratio of IC50 for growth inhibition of Lactococcus lactis NZ9000 transfected with Streptococcus agalactiae COH1 NSR incubated for 5 hrs by spectrophotometry to IC50 for growth inhibition of Lactococcus lactis NZ9000 transfected with pNZ-Erm plasmid incubated for 5 hrs by spectrophotometry", "assay_type": "functional"}, "[3]": {"test_system": "Lactococcus lactis", "assay": "Growth inhibition of Lactococcus lactis NZ9000 transfected with Streptococcus agalactiae COH1 NSR S236A mutant incubated for 5 hrs by spectrophotometry", "assay_type": "functional, organism-based", "details": "NZ9000, 5 h"}, "[4]": {"test_system": "Lactococcus lactis", "assay": "as §1, with “NSR S236A mutant” for “NSR”", "assay_type": "functional"}, "[5]": {"test_system": "Staphylococcus aureus", "assay": "Antibacterial activity against Staphylococcus aureus ATCC 29213 assessed as reduction in cell viability incubated overnight", "assay_type": "functional"}, "[6]": {"test_system": "Lactococcus lactis", "assay": "Induction of pore formation in Lactococcus lactis NZ9000 transfected with Streptococcus agalactiae COH1 NSR assessed as increase in florescence intensity at 30 nM measured after 100 secs by sytox green-based fluorescence assay", "assay_type": "functional, organism-based"}, "[7]": {"test_system": "Staphylococcus aureus", "assay": "Potency index, ratio of MIC for nisin to MIC for test compound for antibacterial activity against Staphylococcus aureus ATCC 29213 assessed as reduction in cell viability incubated overnight", "assay_type": "functional"}, "[8]": {"test_system": "Lactococcus lactis", "assay": "Growth inhibition of Lactococcus lactis NZ9000 transfected with pNZ-Erm plasmid incubated for 5 hrs by spectrophotometry", "assay_type": "functional, organism-based", "details": "NZ9000, 5 h"}, "[9]": {"test_system": "Enterococcus faecalis", "assay": "Potency index, ratio of MIC for nisin to MIC for test compound for antibacterial activity against Enterococcus faecalis ATCC 29212 assessed as reduction in cell viability incubated overnight", "assay_type": "functional"}, "[10]": {"test_system": "Enterococcus faecalis", "assay": "Antibacterial activity against Enterococcus faecalis ATCC 29212 assessed as reduction in cell viability incubated overnight", "assay_type": "functional"}},
  "note": "Calls of active or inactive are those of the source. The rule behind the calls is not given here.",
  "data": [
    {"smiles": "C=C(NC(=O)[C@@H](NC(=O)[C@H](Cc1cnc[nH]1)NC(=O)[C@@H](NC(=O)[C@H](CO)NC(=O)[C@@H]1CCCN1C(=O)[C@H](Cc1cnc[nH]1)NC(=O)[C@@H]1CS[C@@H](C)[C@H](NC(=O)[C@H](CCCCN)NC(=O)[C@H](CCSC)NC(=O)[C@H](CC(N)=O)NC(=O)[C@@H]2CS[C@@H](C)[C@H](NC(=O)[C@H](CCCCN)NC(=O)[C@@H]3CS[C@@H](C)[C@H](NC(=O)[C@@H]4CSC[C@H](NC(=O)/C(=C/C)NC(=O)[C@@H](N)[C@@H](C)CC)C(=O)N[C@@H]([C@@H](C)CC)C(=O)NC(=C)C(=O)N[C@@H](CC(C)C)C(=O)N4)C(=O)N4CCC[C@H]4C(=O)NCC(=O)N3)C(=O)NCC(=O)N[C@@H](C)C(=O)N[C@@H](CC(C)C)C(=O)N[C@@H](CCSC)C(=O)NCC(=O)N2)C(=O)N[C@@H](C)C(=O)N[C@@H](CC)C(=O)N1)[C@@H](C)CC)C(C)C)C(=O)N[C@@H](CCCCN)C(=O)O", "values": [
      {"measurement": "IC50", "setting": "[1]", "value": 22.5, "unit": "nM"},
      {"measurement": "Ratio IC50", "setting": "[2]", "value": 3.5},
      {"measurement": "IC50", "setting": "[3]", "value": 24.1, "unit": "nM"},
      {"measurement": "Ratio IC50", "setting": "[4]", "value": 3.5},
      {"measurement": "MIC", "setting": "[5]", "value": 10.6, "unit": "µM"},
      {"measurement": "Activity", "setting": "[6]", "value": "Active"},
      {"measurement": "Ratio", "setting": "[7]", "value": 7.8},
      {"measurement": "IC50", "setting": "[8]", "value": 5.5, "unit": "nM"},
      {"measurement": "Ratio", "setting": "[9]", "value": 7.8},
      {"measurement": "MIC", "setting": "[10]", "value": 10.6, "unit": "µM"}
    ]}
  ]
}
